Measurements reported in US20260272879A1, “ANION-BINDING AROMATIC OLIGOAMIDE MACROCYCLES AND METHODS OF MAKING AND USING SAME” (The Research Foundation for The State University of New York, priority 2023, published 2026).

Tests used:
[1] = 1H NMR titration, binding of bromide; conditions: DMSO-d6:CDCl3 (15:85, v/v), 25° C., NMR titration (protons a and b)
Procedure: […] […] The titration data were collected by monitoring the changes in chemical shifts of the backbone amide protons and the inner aromatic protons with varying ratios of the anion guests. Job plots indicate that these linear oligoamides and their anion guests bind in a 1:1 stoichiometry.
(§1) ^1H NMR titration methods. Titrations of c5a and c5b with anions as their tetra-n-butylammonium (TBA), tetra-ethylammonium (TEA) and tetra-methylammonium (TMA) salts were carried out by ^1H NMR (400 MHz) at 25° C. 0.4 mL of corresponding hosts solutions were prepared in the rubber-cap NMR tubes. Aliquots of concentrated guest solution containing hosts were added into the NMR tubes using 20 microliter pipette. An initial ^1H NMR spectrum was collected and additional spectra were obtained after each injection of guest solution. All titration ^1H NMR spectra were stacked together and the chemical shifts of the internal aromatic CH proton were then fitted to 1:1 binding model using BindFit v0.5 (http://app.supramolecular.org/bindfit/) to evaluate binding constants to anions.

[2] = 1H NMR titration, binding of ClO4^−; conditions: DMSO-d6:CDCl3 (15:85, v/v), 25° C.
Procedure: as §1

[3] = Isothermal titration calorimetry (ITC), Br^−; assay type: binding; conditions: 25° C.
Procedure: (§2) Isothermal titration calorimetry (ITC) experiments were performed using a MicroCal VP-ITC. ITC experiments were conducted by adding ~1.5 mL of a solution containing c5a to the sample cell. Followed by titrating 10 μL aliquots of a solution containing the corresponding TBA·X salt (~10-14× concentration of c5a solution) from the syringe into the sample cell. Heats of dilution were obtained by titrating 10 μL aliquots of the TBA·X solution from the syringe into the sample cell in the absence of c5a. The heats of dilution were subtracted from the raw data. ITC data processing and curve fitting was done using the Origin program (MicroCal).
(§3) Two-step competition ITC experiments for determining the Ka of c5a and iodide. In CH3CN:CHCl3 (5:95, v/v), the binding affinity of c5a for I^− was too high to be determined with direct NMR or ITC titration. Instead, two-step competition ITC experiments with Cl^− as the competitor were performed.

[4] = Isothermal titration calorimetry (ITC), IO4^−; assay type: binding; conditions: 25° C.
Procedure: as §2, §3

[5] = 1H NMR titration, binding of chloride; conditions: DMSO-d6:CDCl3 (15:85, v/v), 25° C., NMR titration (protons a and b)
Procedure: ^1H NMR Titration methods. Titrations of 4c and 6c with anions as their tetra-n-butyl ammonium (TBA) salts were carried out by ^1H NMR (400 MHz on Bruker-400) at room temperature (298 K). 0.5 mL of receptor 4c (5.0 mM) or 6c (2.0 mM) were prepared in the rubber-cap NMR tubes. Aliquots of concentrated TBACl or TBAI solution (50 mM for the titration of 4c and 20 mM for the titration of 6c) containing the same amount of receptors were added into the receptor solution using 20 microliter pipette. An initial ^1H NMR spectrum was collected and additional spectra were obtained after each injection of TBACl or TBAI solution. All titration ^1H NMR spectra were stacked together and the chemical shifts of amide protons were then fitted to the proposed 1:1 binding model using BindFit v0.5 (http://app.supramolecular.org/bindfit/).
Anion binding with four amides, i.e., L1mer-L4mer, was studied in the mixed solvents of CD3CN/CDCl3 (1/9, v/v) by titrating an amide host with 0 to 5 equivalents of tetrabutylammonium (n-Bu4N^+) salt of the corresponding anion. The binding of chloride, bromide, iodide, and nitrate was examined with the four amides in CDCl3 containing 10% CD3CN. The titration data were collected by monitoring the changes in chemical shifts of the backbone amide protons and the inner aromatic protons with varying ratios of the anion guests. Job plots indicate that these linear oligoamides and their anion guests bind in a 1:1 stoichiometry.
The binding of anions by macrocycle 7c was examined in CH3CN/CHCl3 (6/4, v/v) and in DMSO by titrating with various equivalents of the salts of chloride, iodide. nitrate, and dihydrogen phosphate, with tetrabutylammonium (n-Bu4N^+) being the counterion ion. Following the changes in the chemical shifts of backbone amide protons and “inner” aromatic protons allowed the determination of binding constants.
^1H NMR titration methods. Titrations of c5a and c5b with anions as their tetra-n-butylammonium (TBA), tetra-ethylammonium (TEA) and tetra-methylammonium (TMA) salts were carried out by ^1H NMR (400 MHz) at 25° C. […]

Solubility = assay type: physicochemical; conditions: CHCl3, CH2Cl2, DMF, and DMSO
[6] = 1H NMR titration, binding of PF6^−; conditions: DMSO-d6:CDCl3 (15:85, v/v), 25° C., NMR titration (protons a and b)
Procedure: as §1

CCCCCCCCOCC(C)(C)C(=O)Nc1ccc2cc1C(=O)Nc1ccc(NC(=O)C(C)(C)COCCCCCCCC)c(c1)C(=O)Nc1ccc(NC(=O)C(C)(C)COCCCCCCCC)c(c1)C(=O)Nc1ccc(NC(=O)C(C)(C)COCCCCCCCC)c(c1)C(=O)Nc1ccc(NC(=O)C(C)(C)COCCCCCCCC)c(c1)C(=O)N2 [c5a]
Association constant Ka, 1:1 complex with Br^− [1]: (9.82 ± 1.08) × 10^3 M^−1 | Association constant Ka, 1:1 complex with ClO4^− ([2]; single NMR titration (protons a and b)): (5.74 ± 0.51) × 10^4 M^−1 | Association constant Ka, 1:1 complex with ClO4^− ([2]; triplicate NMR titrations (footnote c)): (9.60 ± 0.76) × 10^4 ^c M^−1 | Association constant Ka, 1:1 complex with Br^− ([3]; CH3CN:CHCl3 (5:95, v/v)): (1.79 ± 0.34) × 10^7 M^−1 | Association constant Ka, 1:1 complex with Br^− ([3]; DMSO:CHCl3 (5:95, v/v)): (1.37 ± 0.04) × 10^4 M^−1 | Association constant Ka, 1:1 complex with IO4^− ([4]; CH3CN:CHCl3 (5:95, v/v)): (2.54 ± 0.22) × 10^7 M^−1 | Association constant Ka, 1:1 complex with IO4^− ([4]; DMSO:CHCl3 (5:95, v/v)): (1.72 ± 0.05) × 10^5 M^−1 | Association constant Ka, 1:1 complex with Cl^− [5]: (4.31 ± 0.12) × 10^3 M^−1 | solubility in organic solvents (Solubility): soluble | Association constant Ka, 1:1 complex with PF6^− [6]: not detected
